Assays:
[1] = target: T1, 5-HT2C serotoninergic receptor (Homo sapiens, UniProt P28335); assay: 5-HT2C intrinsic activity, antagonist mode (AequoScreen calcium mobilization); format: cell-based; conditions: n.a. = no activity at 10–5 M
T1 sequence (P28335 33-458): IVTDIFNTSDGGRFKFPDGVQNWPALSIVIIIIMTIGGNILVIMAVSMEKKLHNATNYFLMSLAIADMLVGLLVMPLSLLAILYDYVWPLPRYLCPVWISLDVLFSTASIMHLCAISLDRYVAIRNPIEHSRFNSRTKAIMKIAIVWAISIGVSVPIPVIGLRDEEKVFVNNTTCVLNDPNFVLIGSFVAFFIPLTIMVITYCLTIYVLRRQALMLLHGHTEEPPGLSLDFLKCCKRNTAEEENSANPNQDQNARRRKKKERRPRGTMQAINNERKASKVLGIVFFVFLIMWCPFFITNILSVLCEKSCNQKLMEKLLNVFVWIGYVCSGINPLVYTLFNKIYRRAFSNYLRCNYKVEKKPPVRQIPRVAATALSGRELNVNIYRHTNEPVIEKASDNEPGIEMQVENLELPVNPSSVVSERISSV
Description: (§1) The determination of intrinsic activity will be performed in accordance with the manufacturer’s Aequoscreen methodology—Perkin Elmer.
(§2) The cell density in the 96-well format was 5000 cells per well. Cell preparation for the assay was performed according to the manufacturer’s instructions for AequoScreen (PerkinElmer, Waltham, MA, USA). […] The cells suspension was applied onto the ligands with the injectors of the POLARstar optima reader (BMG Labtech, Ortenberg, Germany). […] The concentration and dilution series having four replicates were prepared as instructed in the AequoScreen Starter Kit Manual (PerkinElmer, Waltham, MA, USA). The wells received cell injections along with either the standard agonist or the compounds being evaluated, while the POLARstar optima reader documented the emitted light over a duration of 20 s. In the antagonist evaluation, cells were administered (50 μL) into the assay plate alongside antagonist solutions (50 μL). A single concentration of agonist (oxymetazoline) was injected (50 μL, final concentration EC80) into the preincubated (15–20 min) plate with cells and antagonist, and the emitted light was recorded for 20 s.

Danio rerio larvae = assay: Nile red fluorescence fat metabolism assay in zebrafish larvae; format: in vivo; conditions: 10 µg/mL, 48 h incubation of larvae
Description: The study was conducted based on the method described earlier by Jones et al.. Starting at 3 days after fertilization (dpf), larvae were placed into 6-well plates and incubated with the test solutions (compounds in E3: JP-14 at a concentration of 10 μg/mL or resveratrol or E3 alone) for 48 h. Resveratrol solution (20 μg/mL) was used as the reference compound. After 24 h, the solutions were replaced with new ones containing Nile red dye (9-diethylamino-5H-benzo[α]phenoxazine-5-one, Pol-aura, Poland) at a concentration of 100 ng/mL. Nile red is a selective fluorescent lipid dye used to stain lipid droplets. Incubation with the dye was therefore 24 h. Stock solution of Nile red was prepared earlier by dissolving it in acetone to a concentration of 500 μg/mL. After the incubation period, the larvae were rinsed 3 times with 0.1 M phosphate-buffered, pH 7.4 (PBS, Sigma-Aldrich, Schnelldorf, Germany) and anesthetized with cold […] tricaine solution (Sigma-Aldrich, Schnelldorf, Germany). Next, they were visualized under a fluorescence microscope (Zeiss.Discovery.V8, Zeiss, Oberkochen, Germany) and analyzed with ImageJ FIJI program (version 2.17.0).

3T3-L1 cells = assay: Lipid accumulation (AdipoRed assay) in 3T3-L1 cells; format: cell-based, mouse
Description: The 3T3-L1 mouse embryonic fibroblast cell line (ATCC CRL-11605) was cultured according to the standard protocol in Dulbecco’s Modified Eagle Medium (DMEM) supplemented with 10% bovine calf serum, 100 µg/mL streptomycin, and 100 IU/mL penicillin, at 37 °C in a humidified atmosphere containing 5% CO2. Cells were seeded at a density of 10,000 cells/well in collagen type I–coated (10 µg/mL) 96-well plates and allowed to attach for 24 h. Differentiation was initiated by replacing the medium with induction medium composed of DMEM, 0.5 mM 3-isobutyl-1-methylxanthine (IBMX), 1 µM dexamethasone, and 10% fetal bovine serum (FBS). After 48 h (differentiation day 2), the medium was replaced with DMEM supplemented with 10% FBS and 10 µg/mL human recombinant insulin. After an additional 24 h, the medium was replaced with DMEM supplemented with 10% bovine calf serum, 100 µg/mL streptomycin, and 100 IU/mL penicillin. The medium was refreshed every 24 h for 10 consecutive days to allow full differentiation into adipocytes.
On day 10 of differentiation, cells were treated with test compounds for 24 h. To investigate the involvement of the TAAR1 receptor, cells were pre-treated for 15 min with the selective TAAR1 antagonist RTI-7470-44 (40 nM) before compound exposure. After incubation, the culture medium was removed, and wells were gently rinsed with 200 µL PBS and refilled with 200 µL PBS. AdipoRed reagent (5 µL; Lonza) was added to each well, mixed, and incubated at room temperature for 10 min. Fluorescence was measured using the POLARstar Omega plate reader (excitation 485 nm, emission 535 nm).

α2-adrenoceptor = assay: Competitive radioligand binding, [3H]clonidine, rat cerebral cortex; conditions: n.a. = no activity at 10–5 M
Description: The competitive radioligand-binding assay assessed affinity for α1- and α2-adrenoceptors. Experiments were carried out in the rat cerebral cortex. […] The membrane preparation and assay technique followed the previously reported protocol [10]. Radioactivity was measured using the MicroBeta2 scintillation counter (PerkinElmer, Kraków, Poland). The data was adjusted to match a single-site curve-fitting formula using Prism 8 (GraphPad Software, La Jolla, CA, USA), and the Ki values were estimated by means of the Cheng–Prusoff formula.

α2B-adrenoceptor = target: T2, α2B-adrenoceptor (Homo sapiens, UniProt P18089); assay: α2B-adrenoceptor intrinsic activity, antagonist mode (AequoScreen); format: cell-based; conditions: n.a. = no activity at 10–5 M; read-out: α2B Ant IC50
T2 sequence (P18089 1-450): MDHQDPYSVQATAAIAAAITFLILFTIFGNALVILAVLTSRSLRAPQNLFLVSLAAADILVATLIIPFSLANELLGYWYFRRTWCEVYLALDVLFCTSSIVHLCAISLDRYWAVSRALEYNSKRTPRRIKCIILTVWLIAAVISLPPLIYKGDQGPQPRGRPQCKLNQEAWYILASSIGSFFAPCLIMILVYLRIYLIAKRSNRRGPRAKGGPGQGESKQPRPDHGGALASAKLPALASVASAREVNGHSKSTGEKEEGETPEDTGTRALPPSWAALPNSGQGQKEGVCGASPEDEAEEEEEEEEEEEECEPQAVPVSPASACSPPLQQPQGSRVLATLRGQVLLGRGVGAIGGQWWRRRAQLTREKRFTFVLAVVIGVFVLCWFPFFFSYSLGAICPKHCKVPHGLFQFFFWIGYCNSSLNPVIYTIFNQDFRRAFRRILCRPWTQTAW
Description: as §1, §2

α2A-adrenoceptor = target: T3, α2A-adrenoceptor (Homo sapiens, UniProt P08913); assay: α2A-adrenoceptor intrinsic activity, agonist mode (Tango bla reporter assay); format: cell-based; conditions: read-out: α2A Ago Emax, receptor activation relative to the full agonist control
T3 sequence (P08913 1-465): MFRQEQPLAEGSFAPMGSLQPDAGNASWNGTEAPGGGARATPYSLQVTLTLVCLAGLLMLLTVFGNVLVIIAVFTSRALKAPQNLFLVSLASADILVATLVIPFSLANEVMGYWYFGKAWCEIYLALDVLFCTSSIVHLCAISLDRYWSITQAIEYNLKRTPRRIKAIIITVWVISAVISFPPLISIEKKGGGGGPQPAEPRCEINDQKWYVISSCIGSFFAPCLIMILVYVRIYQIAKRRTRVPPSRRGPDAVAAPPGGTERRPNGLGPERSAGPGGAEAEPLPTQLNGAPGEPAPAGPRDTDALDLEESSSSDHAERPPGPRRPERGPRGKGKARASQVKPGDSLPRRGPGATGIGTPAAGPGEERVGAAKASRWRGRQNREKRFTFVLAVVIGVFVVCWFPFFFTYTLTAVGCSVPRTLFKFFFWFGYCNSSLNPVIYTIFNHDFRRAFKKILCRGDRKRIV
Description: Intrinsic α2A-adrenoceptor activity was assessed using Tango assay technology, which utilizes a mammalian-optimized beta-lactamase (bla) reporter gene in conjunction with a FRET-enabled substrate to provide reliable and sensitive detection in cells. The intrinsic activity test was conducted based on the guidelines provided by the maker of the test kit (Invitrogen, Life Technologies, Carlsbad, CA, USA). […] To perform the agonist assay, 8 μL of a 5-fold higher concentration of agonist in assay medium was added to the cells. […] The agonist and antagonist plates were then incubated in a humidified incubator at 37 °C and 5% CO2 for 5 h. After incubation, cells were loaded with 8 μL of LiveBLAzer™-FRET B/G substrate mix (CCF4-AM), covered for light protection, and incubated at room temperature for 2 h.

## [H]/N=C(\N)NN=Cc1c(Cl)cncc1Cl [JP-14, (E)-2-((3,5-Dichloropyridin-4-yl)Methylene)Hydrazine-1-Carboximidamide]
[1]
  5-HT2C Ant EC50: did not exhibit any measurable agonistic or antagonistic activity
Danio rerio larvae
  Nile red detectable fat: decrease
3T3-L1 cells; 10 µM + RTI-7470-44 (40 nM)
  lipid-lowering effect under TAAR1 blockade: completely abolished
3T3-L1 cells; 10 µM, compared to vehicle-treated controls
  lipid accumulation (intracellular lipid content), reduction: 35%
α2-adrenoceptor
  Ki: 126 ± 27 nM
α2B-adrenoceptor
  IC50: 622 nM
α2A-adrenoceptor
  Emax: ~15%

From publication PMC12563652 (International Journal of Molecular Sciences, 2025)
